Results: patent US7541368B2, “Pyrazoles as inhibitors of tumor necrosis factor” (Aventis Pharmaceuticals Inc., priority 2003, dated 2009)

Legend:
[1] = system: TNF-alpha release in THP-1 cells; test: LPS-induced TNF-alpha release in THP-1 cells; assay type: cell-based; conditions: Homo sapiens, THP-1, LPS-stimulated THP-1 cells; read-out: 50% inhibition in the LPS-induced TNF-alpha release in THP-1 cells assay at concentrations within the range
In short: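 TNF-alpha in supernatants was quantified by sandwich ELISA against a log/log recombinant standard curve (0.125-16 ng/ml). Before this, THP-1 cells (1×10^6 cells/ml, serum-reduced) received compound at 1×10^−9 to 1×10^−6 M in 0.3% DMSO for 1 h, then LPS 20 μg/ml for 18 h.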

[2] = molecular target: T1, Inactive N-terminal His6 tagged murine P38 (Mus musculus, UniProt P47811); test: p38 cascade assay (HTRF; inactive p38 activated by MKK-6, ATF-2 phosphorylation); assay type: biochemical; conditions: inactive p38 preincubated with compound, then MKK-6, ATF-2, ATP; read-out: 50% inhibition in the p38 cascade assay at concentrations within the range
T1 construct: His6 (N); made in house
Method: The homogeneous time resolved fluorescence method (HTRF) assay measured the phosphorylation of human activating transcription factor (ATF)-2 protein by P38 following activation by MKK-6 and was run in A384 well plate format. […] MBP-tagged mouse MKK-6 (final concentration 50 nM), GST-tagged ATF-2 (fmal concentration 200 nM) and ATP (final concentration 50 μM) were then added and the incubation continued for 90 min. p38, MKK-6 and ATF-2 were prepared in the Protein Production Group, Aventis Pharmaceuticals. XL665 labeled anti-GST antibody (Cis Bio International) and cryptate labeled anti-pbospho-ATF2 antibody (Cis Bio International) were then added to generate the specific signal proportional to the phosphorylation of the substrate. The close proximity of XL665 labeled anti-GST antibody/phosphorylated GST-ATF2 complex and the cryptate labeled anti-phospho-ATF2 antibody results in a fluorescence transfer from cryptate to XL665. The resulting fluorescence signal was than read on a LJL Acquest set at multi-method mode using a fluorescence filter set (E=360 nm, Em=615/665 nm) with UV dichroic mirror (Integration time: 300000 μs). The results are reported as IC50 values. Compounds were tested over the concentration range of 3×10^−10M to 3×10^−5M.

T1 sequence (P47811 whole entry): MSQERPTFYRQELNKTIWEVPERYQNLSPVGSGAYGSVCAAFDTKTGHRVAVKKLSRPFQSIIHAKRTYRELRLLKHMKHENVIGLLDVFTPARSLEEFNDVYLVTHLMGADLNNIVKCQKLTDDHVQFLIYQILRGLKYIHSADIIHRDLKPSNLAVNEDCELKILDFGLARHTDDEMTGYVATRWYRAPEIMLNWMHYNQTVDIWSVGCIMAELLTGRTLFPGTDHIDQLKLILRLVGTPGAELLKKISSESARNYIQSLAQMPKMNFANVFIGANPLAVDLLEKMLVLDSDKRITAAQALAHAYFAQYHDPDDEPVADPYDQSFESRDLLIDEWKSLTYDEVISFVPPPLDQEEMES

IC50 [1] [nM]	IC50 [2] [nM]	Compound
10 to 500	10 to 100	Cc1ccc(-n2nc(C(C)(C)C)cc2NC(=O)Nc2cccc(CC3CCN(C(=O)C4(C)CC4)CC3)c2)cc1 [Compound A16, 1-(5-tert-Butyl-2-p-tolyl-2H-pyrazol-3-yl)-3-{3-[1-(1-methyl-cyclopropanecarbonyl)-piperidin-4-ylmethyl]-phenyl}-urea]
10 to 500	10 to 100	Cc1ccc(-n2nc(C(C)(C)C)cc2NC(=O)Nc2cccc(CC3CCN(C(=O)c4sc(C)nc4C)CC3)c2)cc1 [Compound A28, 1-(5-tert-Butyl-2-p-tolyl-2H-pyrazol-3-yl)-3-{3-[1-(2,4-dimethyl-thiazole-5-carbonyl)-piperidin-4-ylmethyl]-phenyl}-urea]
10 to 500	10 to 100	Cc1ccc(-n2nc(C(C)(C)C)cc2NC(=O)Nc2cccc(CC3CCN(C(=O)c4csc(-c5cccnc5)n4)CC3)c2)cc1 [Compound A32, 1-(5-tert-Butyl-2-p-tolyl-2H-pyrazol-3-yl)-3-{3-[1-(2-pyridin-3-yl-thiazole-4-carbonyl)-piperidin-4-ylmethyl]-phenyl}-urea]
10 to 500	10 to 100	Cc1ccc(-n2nc(C(C)(C)C)cc2NC(=O)Nc2cccc(CC3CCN(C(=O)c4csc(-c5ccncc5)n4)CC3)c2)cc1 [Compound A34, 1-(5-tert-Butyl-2-p-tolyl-2H-pyrazol-3-yl)-3-{3-[1-(2-pyridin-4-yl-thiazole-4-carbonyl)-piperidin-4-ylmethyl]-phenyl}-urea]
10 to 500	10 to 100	Cc1ccc(-n2nc(C(C)(C)C)cc2NC(=O)Nc2cccc(CC3CCN(C(=O)c4cccnc4Cl)CC3)c2)cc1 [Compound A42, 1-(5-tert-Butyl-2-p-tolyl-2H-pyrazol-3-yl)-3-{3-[1-(2-chloro-pyridine-3-carbonyl)-piperidin-4-ylmethyl]-phenyl}-urea]
10 to 500	10 to 100	Cc1ccc(-n2nc(C(C)(C)C)cc2NC(=O)Nc2cccc(CC3CCN(C(=O)Cc4ccccc4F)CC3)c2)cc1 [Compound A43, 1-(5-tert-Butyl-2-p-tolyl-2H-pyrazol-3-yl)-3-(3-{1-[2-(2-fluoro-phenyl)-acetyl]-piperidin-4-ylmethyl}-phenyl)-urea]
10 to 500	10 to 100	Cc1ccc(-n2nc(C(C)(C)C)cc2NC(=O)Nc2cccc(CC3CCN(C(=O)c4cccnc4C)CC3)c2)cc1 [Compound A59, 1-(5-tert-Butyl-2-p-tolyl-2H-pyrazol-3-yl)-3-{3-[1-(2-methyl-pyridine-3-carbonyl)-piperidin-4-ylmethyl]-phenyl}-urea]
10 to 500	10 to 100	CC(=O)Nc1cccc(C(=O)N2CCC(Cc3cccc(NC(=O)Nc4cc(C(C)(C)C)nn4-c4ccc(C)cc4)c3)CC2)c1 [Compound A88, N-[3-(4-{3-[3-(5-tert-Butyl-2-p-tolyl-2H-pyrazol-3-yl)-ureido]-benzyl}-piperidine-1-carbonyl)-phenyl]-acetamide]
10 to 500	10 to 100	COc1ccc(C(=O)N2CCC(Cc3cccc(NC(=O)Nc4cc(C(C)(C)C)nn4-c4ccc(C)cc4)c3)CC2)c(C)c1 [Compound A120, 1-(5-tert-Butyl-2-p-tolyl-2H-pyrazol-3-yl)-3-{3-[1-(4-methoxy-2-methyl-benzoyl)-piperidin-4-ylmethyl]-phenyl}-urea]
10 to 500	10 to 100	COc1cscc1C(=O)N1CCC(Cc2cccc(NC(=O)Nc3cc(C(C)(C)C)nn3-c3ccc(C)cc3)c2)CC1 [Compound A123, 1-(5-tert-Butyl-2-p-tolyl-2H-pyrazol-3-yl)-3-{3-[1-(4-methoxy-thiophene-3-carbonyl)-piperidin-4-ylmethyl]-phenyl}-urea]
10 to 500	10 to 100	Cc1ccc(-n2nc(C(C)(C)C)cc2NC(=O)Nc2cccc(CC3CCN(C(=O)c4ccc(C)s4)CC3)c2)cc1 [Compound A137, 1-(5-tert-Butyl-2-p-tolyl-2H-pyrazol-3-yl)-3-{3-[1-(5-methyl-thiophene-2-carbonyl)-piperidin-4-ylmethyl]-phenyl}-urea]
10 to 500	10 to 100	Cc1ccc(-n2nc(C(C)(C)C)cc2NC(=O)Nc2cccc(CC3CCN(C(=O)CNC(=O)c4ccccc4)CC3)c2)cc1 [Compound A163, N-[2-(4-{3-[3-(5-tert-butyl-2-p-tolyl-2H-pyrazol-3-yl)-ureido]-benzyl}-piperidin-1-yl)-2-oxo-ethyl]-benzamide]
10 to 500	10 to 100	Cc1ccc(-n2nc(C(C)(C)C)cc2NC(=O)Nc2cccc(CC3CCN(C(=O)c4ccncc4)CC3)c2)cc1 [Compound A170, 1-(5-tert-Butyl-2-p-tolyl-2H-pyrazol-3-yl)-3-{3-[1-(pyridine-4-carbonyl)-piperidin-4-ylmethyl]-phenyl}-urea]
10 to 500	10 to 100	COCC(=O)N1CCC(Cc2cccc(NC(=O)Nc3cc(C(C)(C)C)nn3-c3ccc(C)cc3)c2)CC1 [Compound A173, 1-(5-tert-Butyl-2-p-tolyl-2H-pyrazol-3-yl)-3-{3-[1-(2-methoxy-acetyl)-piperidin-4-ylmethyl]-phenyl}-urea]
10 to 500	10 to 100	CC(=O)NCC(=O)N1CCC(Cc2cccc(NC(=O)Nc3cc(C(C)(C)C)nn3-c3ccc(C)cc3)c2)CC1 [Compound A179, N-[2-(4-{3-[3-(5-tert-Butyl-2-p-tolyl-2H-pyrazol-3-yl)-ureido]-benzyl}-piperidin-1-yl)-2-oxo-ethyl]-acetamide]
10 to 500	10 to 100	Cc1ccc(-n2nc(C(C)(C)C)cc2NC(=O)Nc2cccc(CC3CCN(C(=O)c4cccnc4)CC3)c2)cc1 [Compound A181, 1-(5-tert-Butyl-2-p-tolyl-2H-pyrazol-3-yl)-3-{3-[1-(pyridine-3-carbonyl)-piperidin-4-ylmethyl]-phenyl}-urea]
10 to 500	10 to 100	Cc1ccc(-n2nc(C(C)(C)C)cc2NC(=O)Nc2ccc(CC3CCN(C(=O)Cc4ccc(F)cc4F)CC3)cc2)cc1 [Compound A217, 1-(5-tert-Butyl-2-p-tolyl-2H-pyrazol-3-yl)-3-(4-{1-[2-(2,4-difluoro-phenyl)-acetyl]-piperidin-4-ylmethyl}-phenyl)-urea]
10 to 500	10 to 100	Cc1ccc(-n2nc(C(C)(C)C)cc2NC(=O)Nc2ccc(CC3CCN(C(=O)c4sc(C)nc4C)CC3)cc2)cc1 [Compound A219, 1-(5-tert-Butyl-2-p-tolyl-2H-pyrazol-3-yl)-3-{4-[1-(2,4-dimethyl-thiazole-5-carbonyl)-piperidin-4-ylmethyl]-phenyl}-urea]
10 to 500	10 to 100	COc1ccc(OC)c(C(=O)N2CCC(Cc3ccc(NC(=O)Nc4cc(C(C)(C)C)nn4-c4ccc(C)cc4)cc3)CC2)c1 [Compound A220, 1-(5-tert-Butyl-2-p-tolyl-2H-pyrazol-3-yl)-3-{4-[1-(2,5-dimethoxy-benzoyl)-piperidin-4-ylmethyl]-phenyl}-urea]
10 to 500	10 to 100	Cc1ccc(-n2nc(C(C)(C)C)cc2NC(=O)Nc2ccc(CC3CCN(C(=O)c4cnccn4)CC3)cc2)cc1 [Compound A256, 1-(5-tert-Butyl-2-p-tolyl-2H-pyrazol-3-yl)-3-{4-[1-(pyrazine-2-carbonyl)-piperidin-4-ylmethyl]-phenyl}-urea]
10 to 500	10 to 100	Cc1ccc(-n2nc(C(C)(C)C)cc2NC(=O)Nc2ccc(CC3CCN(C(=O)c4nccnc4N)CC3)cc2)cc1 [Compound A283, 1-{4-[1-(3-Amino-pyrazine-2-carbonyl)-piperidin-4-ylmethyl]-phenyl}-3-(5-tert-butyl-2-p-tolyl-2H-pyrazol-3-yl)-urea]
10 to 500	10 to 100	Cc1ccc(-n2nc(C(C)(C)C)cc2NC(=O)Nc2ccc(CC3CCN(C(=O)c4occc4C)CC3)cc2)cc1 [Compound A289, 1-(5-tert-Butyl-2-p-tolyl-2H-pyrazol-3-yl)-3-{4-[1-(3-methyl-furan-2-carbonyl)-piperidin-4-ylmethyl]-phenyl}-urea]
10 to 500	10 to 100	Cc1ccc(-n2nc(C(C)(C)C)cc2NC(=O)Nc2ccc(CC3CCN(C(=O)c4oc5ccccc5c4C)CC3)cc2)cc1 [Compound A290, 1-(5-tert-Butyl-2-p-tolyl-2H-pyrazol-3-yl)-3-{4-[1-(3-methyl-benzofuran-2-carbonyl)-piperidin-4-ylmethyl]-phenyl}-urea]
10 to 500	10 to 100	Cc1ccc(-n2nc(C(C)(C)C)cc2NC(=O)Nc2ccc(CC3CCN(C(=O)CCOc4ccccc4)CC3)cc2)cc1 [Compound A292, 1-(5-tert-Butyl-2-p-tolyl-2H-pyrazol-3-yl)-3-{4-[1-(3-phenoxy-propionyl)-piperidin-4-ylmethyl]-phenyl}-urea]
